# Test results reported in ChEMBL document CHEMBL5550160, “Leveraging a rationally designed veliparib-based anilide eliciting anti-leukemic effects for the design of pH-responsive polymer nanoformulation” (Eur J Med Chem, 2024).
# pIC50: −log10 of the molar value. Activity calls are given as the source filed them. No cut-off for these calls is given here.
# Columns and labels:
# [1] = molecular target: T1, Histone deacetylase 7 (Homo sapiens) (UniProt Q8WUI4); experiment: Inhibition of HDAC7 (unknown origin) assessed as residual activity at 5.08 x 10^-10M (reference value: 102.66%); conditions: dose 5.08 10^-10M
# T1 sequence (whole entry): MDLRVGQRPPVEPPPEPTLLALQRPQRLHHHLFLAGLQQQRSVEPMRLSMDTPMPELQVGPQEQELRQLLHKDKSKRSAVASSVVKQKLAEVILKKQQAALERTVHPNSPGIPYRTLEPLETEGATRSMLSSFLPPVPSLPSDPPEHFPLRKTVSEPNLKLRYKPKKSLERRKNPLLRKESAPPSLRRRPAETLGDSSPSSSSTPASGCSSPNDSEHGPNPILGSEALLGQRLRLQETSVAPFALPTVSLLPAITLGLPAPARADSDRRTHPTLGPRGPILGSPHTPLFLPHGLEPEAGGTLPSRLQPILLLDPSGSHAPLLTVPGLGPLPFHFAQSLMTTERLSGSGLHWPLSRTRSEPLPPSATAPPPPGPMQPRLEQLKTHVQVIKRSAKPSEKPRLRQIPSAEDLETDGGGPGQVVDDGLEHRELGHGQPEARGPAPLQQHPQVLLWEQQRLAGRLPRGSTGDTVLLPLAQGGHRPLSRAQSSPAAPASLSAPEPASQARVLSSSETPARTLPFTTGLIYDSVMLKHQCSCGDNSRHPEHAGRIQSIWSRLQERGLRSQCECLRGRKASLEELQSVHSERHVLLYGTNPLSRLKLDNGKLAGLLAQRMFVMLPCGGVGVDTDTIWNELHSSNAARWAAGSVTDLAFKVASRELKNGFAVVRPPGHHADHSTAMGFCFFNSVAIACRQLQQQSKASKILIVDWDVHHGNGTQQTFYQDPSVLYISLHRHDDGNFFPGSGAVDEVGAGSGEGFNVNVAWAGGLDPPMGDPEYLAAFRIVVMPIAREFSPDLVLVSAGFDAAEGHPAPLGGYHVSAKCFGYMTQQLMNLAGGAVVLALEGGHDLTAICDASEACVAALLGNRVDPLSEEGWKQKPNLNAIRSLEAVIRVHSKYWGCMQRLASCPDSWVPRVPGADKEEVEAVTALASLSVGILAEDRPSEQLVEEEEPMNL
# [2] = molecular target: Histone deacetylase 9 (Homo sapiens) (UniProt Q9UKV0); experiment: Inhibition of HDAC9 (unknown origin) assessed as residual activity at 1.1 x 10^-6M (reference value: 97.55%); conditions: dose 1.1 10^-6M
# [3] = molecular target: Histone deacetylase 1 (Homo sapiens, UniProt Q13547); experiment: Inhibition of HDAC1 (unknown origin) using p53 residues 379 to 382 [RHKK(Ac)] as fluorogenic substrate assessed as residual activity at 3.70 x 10^-7M (reference value: 98.06%); conditions: dose 3.7 10^-7M
# [4] = molecular target: T2, Histone deacetylase 3 (Homo sapiens, UniProt O15379); experiment: Inhibition of HDAC3 (unknown origin) using p53 residues 379 to 382 [RHKK(Ac)] as fluorogenic substrate assessed as residual activity at 1.37 x 10^-8M (reference value: 103.08%); conditions: dose 1.37 10^-8M
# [5] = tested on: HL-60; experiment: Upregulation of gammaH2AX protein expression in human HL-60 cells at 0.5 to 1 times IC50 by Western blot analysis; assay type: functional, cell-based
# [6] = molecular target: T2, Histone deacetylase 3; experiment: Inhibition of HDAC3 (unknown origin) using p53 residues 379 to 382 [RHKK(Ac)] as fluorogenic substrate assessed as residual activity at 3.33 x 10^-6M (reference value: 103.08%); conditions: dose 3.33 10^-6M
# [7] = molecular target: Histone deacetylase 4 (Homo sapiens) (UniProt P56524); experiment: Inhibition of HDAC4 (unknown origin) assessed as residual activity at 1.37 x 10^-8M (reference value: 98.90%); conditions: dose 1.37 10^-8M
# [8] = tested on: HH; experiment: cells; assay type: functional, cell-based; conditions: Homo sapiens
# Description: Antiproliferative activity against human HH cells assessed as inhibition of cell growth by MTT assay
# [9] = molecular target: Histone deacetylase 4 (Homo sapiens) (UniProt P56524); experiment: Inhibition of HDAC4 (unknown origin) assessed as residual activity at 3.70 x 10^-7M (reference value: 98.90%); conditions: dose 3.7 10^-7M
# [10] = tested on: FaDu; experiment: cells; assay type: functional, cell-based; conditions: Homo sapiens
# Description: Antiproliferative activity against human FaDu cells assessed as inhibition of cell growth by MTT assay
# [11] = molecular target: T3, Polyamine deacetylase HDAC10 (Homo sapiens) (UniProt Q969S8); experiment: Inhibition of HDAC10 (unknown origin) assessed as residual activity at 4.57 x 10^-9M (reference value: 101.54%); conditions: dose 4.57 10^-9M
# T3 sequence (whole entry): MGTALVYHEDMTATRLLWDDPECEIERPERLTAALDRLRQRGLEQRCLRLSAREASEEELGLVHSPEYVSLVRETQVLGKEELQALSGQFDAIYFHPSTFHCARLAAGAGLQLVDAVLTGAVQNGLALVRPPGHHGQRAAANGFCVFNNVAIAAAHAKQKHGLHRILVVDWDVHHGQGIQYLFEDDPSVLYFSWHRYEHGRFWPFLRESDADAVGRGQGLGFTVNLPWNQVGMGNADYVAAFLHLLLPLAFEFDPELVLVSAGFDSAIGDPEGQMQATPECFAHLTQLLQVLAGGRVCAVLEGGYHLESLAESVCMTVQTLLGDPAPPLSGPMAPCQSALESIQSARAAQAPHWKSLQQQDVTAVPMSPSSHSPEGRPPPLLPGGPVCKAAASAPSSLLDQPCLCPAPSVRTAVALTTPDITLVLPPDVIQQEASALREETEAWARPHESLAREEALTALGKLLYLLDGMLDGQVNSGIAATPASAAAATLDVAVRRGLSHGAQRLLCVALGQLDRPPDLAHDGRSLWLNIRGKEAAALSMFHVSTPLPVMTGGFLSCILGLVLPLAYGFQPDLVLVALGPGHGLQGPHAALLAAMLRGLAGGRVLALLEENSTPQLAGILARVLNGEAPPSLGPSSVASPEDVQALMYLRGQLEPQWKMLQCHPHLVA
# [12] = molecular target: T1, Histone deacetylase 7 (Homo sapiens); experiment: Inhibition of HDAC7 (unknown origin) assessed as residual activity at 4.12 x 10^-8M (reference value: 102.66%); conditions: dose 4.12 10^-8M
# [13] = molecular target: Histone deacetylase 9 (Homo sapiens) (UniProt Q9UKV0); experiment: Inhibition of HDAC9 (unknown origin) assessed as residual activity at 4.12 x 10^-8M (reference value: 97.55%); conditions: dose 4.12 10^-8M
# [14] = tested on: HL-60; experiment: Induction of apoptosis in human HL-60 cells assessed as chromatin condensation at 0.5 to 1 times IC50 by DAPI staining based microscopic analysis; assay type: functional, cell-based
# [15] = molecular target: T2, Histone deacetylase 3; experiment: Inhibition of HDAC3 (unknown origin) using p53 residues 379 to 382 [RHKK(Ac)] as fluorogenic substrate
# [16] = tested on: HL-60; experiment: Induction of autophagy in human HL-60 cells assessed as conversion of LC3-I to LC3-II at 0.5 to 1 times IC50 by Western blot analysis; assay type: functional, cell-based
# [17] = molecular target: T2, Histone deacetylase 3; experiment: Inhibition of HDAC3 (unknown origin) using p53 residues 379 to 382 [RHKK(Ac)] as fluorogenic substrate assessed as residual activity at 5.08 x 10^-10M (reference value: 103.08%); conditions: dose 5.08 10^-10M
# T2 sequence (O15379 whole entry, the tested form may be a part): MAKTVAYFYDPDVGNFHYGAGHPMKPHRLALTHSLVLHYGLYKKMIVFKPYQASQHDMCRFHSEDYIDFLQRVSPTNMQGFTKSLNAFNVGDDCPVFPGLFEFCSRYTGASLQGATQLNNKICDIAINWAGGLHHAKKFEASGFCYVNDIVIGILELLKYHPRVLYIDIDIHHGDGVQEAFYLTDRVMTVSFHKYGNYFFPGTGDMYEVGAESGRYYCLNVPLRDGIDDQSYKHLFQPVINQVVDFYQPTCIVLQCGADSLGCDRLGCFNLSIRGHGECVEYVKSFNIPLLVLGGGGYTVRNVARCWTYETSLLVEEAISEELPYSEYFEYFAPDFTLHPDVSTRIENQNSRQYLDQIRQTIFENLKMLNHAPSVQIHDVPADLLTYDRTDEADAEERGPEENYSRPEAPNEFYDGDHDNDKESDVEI
# Sequence of Histone deacetylase 9 (Homo sapiens) (Q9UKV0 whole entry, the tested form may be a part): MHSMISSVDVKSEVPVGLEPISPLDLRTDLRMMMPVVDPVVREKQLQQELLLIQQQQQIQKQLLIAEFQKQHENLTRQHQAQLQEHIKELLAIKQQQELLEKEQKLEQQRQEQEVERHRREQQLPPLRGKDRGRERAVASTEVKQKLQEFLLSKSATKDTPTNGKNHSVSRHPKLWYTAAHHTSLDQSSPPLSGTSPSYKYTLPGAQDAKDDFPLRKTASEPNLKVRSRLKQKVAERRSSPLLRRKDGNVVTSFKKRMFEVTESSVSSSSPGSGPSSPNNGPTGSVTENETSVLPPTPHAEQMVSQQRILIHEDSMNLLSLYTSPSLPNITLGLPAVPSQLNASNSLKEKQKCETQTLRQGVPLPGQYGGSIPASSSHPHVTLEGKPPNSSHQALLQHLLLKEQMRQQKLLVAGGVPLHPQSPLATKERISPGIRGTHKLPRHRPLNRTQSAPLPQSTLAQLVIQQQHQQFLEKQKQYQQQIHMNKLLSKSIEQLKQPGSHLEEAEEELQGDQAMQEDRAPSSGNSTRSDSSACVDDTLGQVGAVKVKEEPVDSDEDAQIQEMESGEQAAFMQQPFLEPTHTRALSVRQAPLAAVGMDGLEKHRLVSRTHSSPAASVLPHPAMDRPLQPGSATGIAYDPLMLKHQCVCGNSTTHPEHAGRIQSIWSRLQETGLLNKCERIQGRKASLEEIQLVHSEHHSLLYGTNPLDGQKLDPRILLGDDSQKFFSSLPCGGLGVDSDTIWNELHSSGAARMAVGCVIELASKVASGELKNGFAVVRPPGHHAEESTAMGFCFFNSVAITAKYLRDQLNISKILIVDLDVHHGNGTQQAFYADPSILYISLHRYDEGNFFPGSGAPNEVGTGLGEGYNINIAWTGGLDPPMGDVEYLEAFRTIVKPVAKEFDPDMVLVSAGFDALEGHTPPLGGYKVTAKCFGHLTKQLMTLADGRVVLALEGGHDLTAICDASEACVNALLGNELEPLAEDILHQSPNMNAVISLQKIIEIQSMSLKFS
# Sequence of Histone deacetylase 4 (Homo sapiens) (P56524 whole entry): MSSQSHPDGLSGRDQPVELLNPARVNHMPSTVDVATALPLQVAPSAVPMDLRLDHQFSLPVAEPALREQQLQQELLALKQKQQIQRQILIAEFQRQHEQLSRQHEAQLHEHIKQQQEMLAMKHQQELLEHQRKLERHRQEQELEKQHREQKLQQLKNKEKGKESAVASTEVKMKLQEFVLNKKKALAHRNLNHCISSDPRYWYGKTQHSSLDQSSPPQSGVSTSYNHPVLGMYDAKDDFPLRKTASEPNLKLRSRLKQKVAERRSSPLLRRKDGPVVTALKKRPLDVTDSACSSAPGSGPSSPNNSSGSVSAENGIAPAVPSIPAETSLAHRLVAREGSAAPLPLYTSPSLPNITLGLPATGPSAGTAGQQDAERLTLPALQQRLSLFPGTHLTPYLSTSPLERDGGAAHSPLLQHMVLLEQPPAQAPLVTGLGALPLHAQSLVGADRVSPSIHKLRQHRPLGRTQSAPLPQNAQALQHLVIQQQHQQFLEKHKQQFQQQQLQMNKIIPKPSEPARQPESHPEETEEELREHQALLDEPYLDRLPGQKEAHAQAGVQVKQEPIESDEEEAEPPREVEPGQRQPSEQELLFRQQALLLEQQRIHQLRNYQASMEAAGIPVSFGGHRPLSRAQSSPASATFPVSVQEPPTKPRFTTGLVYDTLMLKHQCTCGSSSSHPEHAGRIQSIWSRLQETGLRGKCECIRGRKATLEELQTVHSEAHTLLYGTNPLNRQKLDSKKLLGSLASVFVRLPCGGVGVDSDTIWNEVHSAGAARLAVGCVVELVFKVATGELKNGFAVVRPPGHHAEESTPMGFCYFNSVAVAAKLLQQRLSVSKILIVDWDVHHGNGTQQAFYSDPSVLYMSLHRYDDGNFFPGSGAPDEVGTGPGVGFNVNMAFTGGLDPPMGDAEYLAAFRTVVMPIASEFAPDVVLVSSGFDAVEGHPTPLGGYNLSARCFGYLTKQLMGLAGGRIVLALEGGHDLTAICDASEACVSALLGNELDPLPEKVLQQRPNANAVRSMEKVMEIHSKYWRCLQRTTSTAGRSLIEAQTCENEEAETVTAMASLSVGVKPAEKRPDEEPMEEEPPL
# Sequence of Histone deacetylase 1 (Q13547 whole entry, the tested form may be a part): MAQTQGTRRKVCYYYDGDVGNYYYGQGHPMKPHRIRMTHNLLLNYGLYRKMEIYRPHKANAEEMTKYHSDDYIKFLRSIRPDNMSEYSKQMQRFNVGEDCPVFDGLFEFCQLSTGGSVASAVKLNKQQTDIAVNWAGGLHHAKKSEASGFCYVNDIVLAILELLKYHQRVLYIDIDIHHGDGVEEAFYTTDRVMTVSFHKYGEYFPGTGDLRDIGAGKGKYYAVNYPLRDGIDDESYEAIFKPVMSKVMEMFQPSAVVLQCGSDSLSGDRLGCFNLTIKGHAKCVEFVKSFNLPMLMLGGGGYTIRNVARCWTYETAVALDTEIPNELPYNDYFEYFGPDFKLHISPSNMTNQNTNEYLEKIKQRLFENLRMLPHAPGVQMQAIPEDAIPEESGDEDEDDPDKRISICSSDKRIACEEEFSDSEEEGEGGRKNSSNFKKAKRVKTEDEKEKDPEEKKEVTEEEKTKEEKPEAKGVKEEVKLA
smiles,measurement,setting,value
NC(=O)c1cccc2[nH]c(-c3ccc(NCc4ccc(C(=O)Nc5ccccc5N)cc4)cc3)nc12,Activity,[1],93.4%
same,Activity,[2],93%
same,Activity,[3],16.9%
same,Activity,[4],110%
same,Activity,[5],Active
same,Activity,[6],12.8%
same,Activity,[7],96.3%
same,pIC50,[8],6.00
same,Activity,[9],108%
same,pIC50,[10],< 5.00
same,Activity,[11],98.8%
same,Activity,[12],87%
same,Activity,[13],102%
same,Activity,[14],inactive
same,pIC50,[15],6.41
same,Activity,[16],Dose-Dependent Effect
same,Activity,[17],107%
